Assay [1] has as its target T1, Adenosine receptor A1 (Rattus norvegicus) (UniProt P25099).
T1 sequence (whole entry): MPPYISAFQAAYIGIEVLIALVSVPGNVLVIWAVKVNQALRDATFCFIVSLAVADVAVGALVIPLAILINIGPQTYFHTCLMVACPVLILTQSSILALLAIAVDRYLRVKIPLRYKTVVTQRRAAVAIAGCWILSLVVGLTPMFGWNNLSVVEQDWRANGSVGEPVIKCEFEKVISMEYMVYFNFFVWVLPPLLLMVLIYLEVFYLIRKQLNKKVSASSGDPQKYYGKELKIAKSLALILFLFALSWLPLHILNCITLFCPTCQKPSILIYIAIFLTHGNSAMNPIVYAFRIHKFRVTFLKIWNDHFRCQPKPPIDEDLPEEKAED
Briefly: Percentage displacement of [3H]DPCPX from rat cortical membranes Adenosine A1 receptor at 10 uM. In kind it is cell membranes. Conditions: Membrane.

The target of assay [2] is T2, Adenosine receptor A3 (Homo sapiens) (UniProt P0DMS8).
T2 sequence (whole entry): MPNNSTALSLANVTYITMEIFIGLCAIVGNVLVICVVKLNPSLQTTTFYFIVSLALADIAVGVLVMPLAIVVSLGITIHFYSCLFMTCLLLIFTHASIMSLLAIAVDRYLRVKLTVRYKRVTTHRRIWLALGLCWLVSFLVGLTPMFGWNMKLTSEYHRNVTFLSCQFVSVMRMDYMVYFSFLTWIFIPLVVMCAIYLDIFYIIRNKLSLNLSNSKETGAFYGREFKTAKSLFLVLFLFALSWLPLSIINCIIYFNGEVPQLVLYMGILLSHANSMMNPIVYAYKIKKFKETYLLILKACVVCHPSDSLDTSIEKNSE
Briefly: Percentage of [35S]GTP-gamma-S, binding to the human adenosine A3 receptor stimulated at 10E-4 M. In kind it is functional. (In general: GTPγS resists hydrolysis and so accumulates on activated G proteins.)

The target of assay [3] is Adenosine receptor A2a (Rattus norvegicus) (UniProt P30543). In words: Percentage displacement of [3H]-CGS- 21680 from Adenosine A2A receptor of rat striatal membranes at 10 uM. It is filed as cell membranes. Conditions: Membrane.
Assay [4] concerns the target T3, Adenosine receptor A3 (Homo sapiens, UniProt P0DMS8).
T3 sequence (P0DMS8 whole entry): T2 sequence (whole entry)
Briefly: Binding affinity at human Adenosine A3 receptor expressed in HEK 293 cells by [125I]AB-MECA displacement. In kind it is cell-based, HEK293.

The target of assay [5] is Adenosine receptors; A1 & A3 (Rattus norvegicus) (UniProt P25099+P28647). Briefly: Ratio of displacement of A1 receptor to A3 receptor. In kind it is protein assay.
Assay [6] addresses T4, Adenosine receptor A2a (Rattus norvegicus, UniProt P30543). Briefly: Displacement of [3H]-CGS- 21680 from Adenosine A2A receptor of rat striatal membranes. It is filed as cell membranes, Membrane. Background: In a radioligand displacement assay an active substance lowers the binding of a labelled ligand.
A further assay has as its target T5, Adenosine receptor A1 (Rattus norvegicus, UniProt P25099).
T5 sequence (P25099 whole entry): T1 sequence (whole entry)
In words: Displacement of [3H]DPCPX from rat cortical membranes Adenosine A1 receptor. In kind it is cell membranes, Membrane.

The target of assay [7] is T3, Adenosine receptor A3. Briefly: Effective concentration for stimulation of [35S]GTP-gamma-S, binding to human adenosine A3 receptor. In kind it is functional.
Assay [8] addresses T2, Adenosine receptor A3 (Homo sapiens). Briefly: Inhibition of forskolin-stimulated cAMP production mediated by human adenosine A3 receptor expressed in CHO cells at 10 uM. In kind it is functional, cell-based. Background: cAMP levels reflect the balance of adenylyl cyclase and phosphodiesterase activity.
Assay [9] has the same target. In words: Inhibition of forskolin-induced c-AMP production by adenosine A3 receptor with 10 uM NECA. It is filed as functional.
The target of assay [10] is T4, Adenosine receptor A2a. In words: Displacement of [3H]-CGS- […] from Adenosine A2A receptor of rat striatal membranes. In kind it is cell membranes, Membrane.
For assay [11], the target named is T3, Adenosine receptor A3. Briefly: Displacement of [125I]AB-MECA from human Adenosine A3 receptor expressed in HEK 293 cells. In kind it is cell-based, HEK293.

The structures appear in SMILES notation.

T4 sequence (P30543 whole entry): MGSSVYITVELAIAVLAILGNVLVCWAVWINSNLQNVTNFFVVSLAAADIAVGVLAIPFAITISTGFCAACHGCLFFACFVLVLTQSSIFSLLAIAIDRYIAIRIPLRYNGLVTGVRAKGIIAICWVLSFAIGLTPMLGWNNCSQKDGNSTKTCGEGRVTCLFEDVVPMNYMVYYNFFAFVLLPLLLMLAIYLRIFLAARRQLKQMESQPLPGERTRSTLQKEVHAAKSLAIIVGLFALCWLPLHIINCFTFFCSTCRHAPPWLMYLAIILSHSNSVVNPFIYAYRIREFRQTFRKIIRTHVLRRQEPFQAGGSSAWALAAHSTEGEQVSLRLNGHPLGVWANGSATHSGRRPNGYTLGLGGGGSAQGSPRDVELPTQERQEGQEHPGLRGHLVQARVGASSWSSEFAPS
Adenosine receptor A2a (Rattus norvegicus), sequence (P30543 whole entry): as above

The term Ki denotes a dissociation constant, usually derived from enzyme kinetics or from competition with a known ligand. A higher Ki goes with weaker binding. Take `CC(C)SC[C@H]1O[C@@H](n2cnc3c(NCc4cccc(I)c4)ncnc32)[C@H](O)[C@@H]1O`: the figures for the Displacement in assay [1] and in assay [3] were 35% and 45%, respectively. In [2], the Radioligand bound is 16%. Besides, at Adenosine receptor A3 [4], the affinity, expressed as Ki, was 0.0463 µM. In addition, in assay [5], the Ratio was more than 216.

`O[C@@H]1[C@H](O)[C@@H](CCl)O[C@H]1n1cnc2c(NC3CCCC3)ncnc21` had a Ki at Adenosine receptor A3 [4] of 1.29 µM. In addition, the Ratio in assay [5] was 0.007.

For the compound `CCSC[C@H]1O[C@@H](n2cnc3c(NCc4ccccc4)ncnc32)[C@H](O)[C@@H]1O`, the Displacement in assay [1] came out at 29%; in [3], 38%. For the same compound, the Radioligand bound in [2] turned out to be 19%. On Adenosine receptor A3 [4], this compound displayed an inhibition constant Ki of 0.159 µM. In assay [5], the Ratio is more than 62.9.

For the compound `CCCSC[C@H]1O[C@@H](n2cnc3c(NCc4ccccc4)ncnc32)[C@H](O)[C@@H]1O`, the Ki on Adenosine receptor A2a [6] was 7.99 µM; on Adenosine receptor A1, 5.87 µM; on Adenosine receptor A3 [4], 0.647 µM. The compound further gave a Radioligand bound in assay [2] of 7%. The Ratio in assay [5] was 8.7.

A word on the EC50: it is the concentration needed to bring the measured effect to its halfway point. A higher EC50 goes with a need for much substance. The term inhibition denotes how much of the control response was suppressed. Lower therefore signals little suppression. For `OC[C@H]1O[C@@H](n2cnc3c(NCc4ccccc4)ncnc32)[C@H](O)[C@@H]1O` [N6-BENZYLADENOSINE], the Ki at Adenosine receptor A2a [6] is 0.733 µM; at Adenosine receptor A3 [4], 0.55 µM. The same compound registered a Radioligand bound in assay [2] of 81%. On Adenosine receptor A3 [7], this compound registered a concentration for a half-maximal effect (EC50) of 0.384 µM. The inhibition in assay [8] is 82%; in assay [9] it was 94%.

As for `CCCSC[C@H]1O[C@@H](n2cnc3c(NC4CCCC4)ncnc32)[C@H](O)[C@@H]1O`, the Ki on Adenosine receptor A3 [4] is 0.193 µM. The Ratio in assay [5] stood at 0.39.

In turn, `O[C@@H]1[C@H](O)[C@@H](CCl)O[C@H]1n1cnc2c(NCc3ccccc3)ncnc21` showed a Displacement in assay [1] of 47%. For the same compound, the Ki at Adenosine receptor A2a [6] is 0.641 µM; at Adenosine receptor A3 [4], 1.86 µM. Also, the Radioligand bound in assay [2] came out at 13%. Further, the Ratio in [5] is more than 5.4.

On to `CC(C)SC[C@H]1O[C@@H](n2cnc3c(NCc4ccccc4)ncnc32)[C@H](O)[C@@H]1O`, for which the results for the Displacement in [1] and in assay [3] were 14% and 6%, respectively. Also, the Radioligand bound in assay [2] was determined as 22%. Further, at Adenosine receptor A3 [4], the affinity, expressed as Ki, was 0.211 µM. Also, the Ratio in [5] is more than 47.4.

`OC[C@H]1O[C@@H](n2cnc3c(NCc4cccc(I)c4)ncnc32)[C@H](O)[C@@H]1O`: the Radioligand bound in [2] was determined as 56%. Moreover, the inhibition in assay [8] is 86%; in assay [9] it was 91%.

On to `O[C@@H]1[C@H](O)[C@@H](CCl)O[C@H]1n1cnc2c(NCc3cccc(I)c3)ncnc21`, for which the Ki on Adenosine receptor A2a [6] came to 0.457 µM; at Adenosine receptor A1, 0.27 µM; on Adenosine receptor A3 [4], 0.188 µM. For the same compound, in assay [2], the Radioligand bound turned out to be 8%. In [5], the Ratio turned out to be 1.4.

Take `CCCSC[C@H]1O[C@@H](n2cnc3c(NCc4cccc(I)c4)ncnc32)[C@H](O)[C@@H]1O`: the Displacement in [1] and in assay [3] was 42% each time. In addition, the Radioligand bound in [2] stood at 10%. The Ki at Adenosine receptor A3 [4] was determined as 0.0443 µM. Also, the Ratio in assay [5] was more than 226.

In the case of `CSC[C@H]1O[C@@H](n2cnc3c(NCc4cccc(I)c4)ncnc32)[C@H](O)[C@@H]1O`, the inhibition constant Ki on Adenosine receptor A2a [6] was determined as 1.82 µM; on Adenosine receptor A1, 0.61 µM; on Adenosine receptor A3 [4] it was 0.00878 µM. Also, the Radioligand bound in [2] stood at 41%. Moreover, the midpoint of the response at Adenosine receptor A3 [7], the EC50, lay at 0.027 µM. Further, the inhibition in assay [8] turned out to be 64%; in [9], 87%. Also, the Ratio in [5] was determined as 69.5.

With `CCSC[C@H]1O[C@@H](n2cnc3c(NCc4cccc(I)c4)ncnc32)[C@H](O)[C@@H]1O`, the values for the Ki on Adenosine receptor A2a [6], at Adenosine receptor A1 and at Adenosine receptor A3 [4] were 1.08 µM, 0.72 µM and 0.0175 µM, respectively. The same compound returned a Radioligand bound in [2] of 21%. Further, the Ratio in assay [5] was 41.1.

At Adenosine receptor A3 [4], `CNC(=O)[C@H]1OC(n2cnc3c(NCc4ccccc4)ncnc32)[C@@H](O)[C@H]1O` (some centres undefined) gave a Ki of 0.041 µM.

As for `CCSC[C@H]1O[C@@H](n2cnc3c(NC4CCCC4)ncnc32)[C@H](O)[C@@H]1O`, the Ki at Adenosine receptor A3 [4] came out at 0.09 µM. The Ratio in [5] came to 0.5.

As for `CSC[C@H]1O[C@@H](n2cnc3c(NCc4ccccc4)ncnc32)[C@H](O)[C@@H]1O`, the Displacement worked out at 31% in [1] and 25% in assay [3]. In assay [2], the Radioligand bound is 52%. On Adenosine receptor A3 [7], this compound registered an EC50 of 0.473 µM. Further, the inhibition in assay [8] was 60%; in assay [9], 93%. Moreover, on Adenosine receptor A3 [4], affinity was put at a Ki of 0.128 µM. Further, the Ratio in assay [5] was more than 78.1.

Turning to `CC(C)SC[C@H]1O[C@@H](n2cnc3c(NC4CCCC4)ncnc32)[C@H](O)[C@@H]1O`, the Ki worked out at 10.2 µM on Adenosine receptor A2a [10], 0.041 µM on Adenosine receptor A1 and 0.137 µM on Adenosine receptor A3 [4]. In addition, the Ratio in assay [5] stood at 0.3.

In the case of `O[C@H]1[C@@H](c2ccon2)OC(n2cnc3c(NCc4cccc(I)c4)nc(Cl)nc32)[C@H]1O` (some centres undefined), on Adenosine receptor A3 [4], the Ki is 0.0078 µM.

For the compound `CSC[C@H]1O[C@@H](n2cnc3c(NC4CCCC4)ncnc32)[C@H](O)[C@@H]1O`, the Ki at Adenosine receptor A3 [4] came out at 0.074 µM. Moreover, the Ratio in assay [5] was found to be 0.8.

Consider `OC[C@H]1O[C@@H](n2cnc3c(NC4CCCC4)ncnc32)[C@H](O)[C@@H]1O` [N6-CYCLOPENTYLADENOSINE], for which the Ki on Adenosine receptor A3 [4] stood at 0.12 µM.

`CCNC(=O)[C@H]1O[C@@H](n2cnc3c(N)ncnc32)[C@H](O)[C@@H]1O` had a Radioligand bound in assay [2] of 100%. Further, in assay [8], the inhibition was 100%.

With `CNC(=O)C[C@H]1OC(n2cnc3c(NCc4cccc(I)c4)nc(Cl)nc32)[C@@H](O)[C@H]1O` (some centres undefined), the Ki at Adenosine receptor A3 [11] came to 0.00033 µM.

For `COc1cccc(CNc2nc(Cl)nc3c2ncn3C2O[C@H](c3ccon3)[C@H](O)[C@@H]2O)c1` (some centres undefined), the Ki at Adenosine receptor A3 [4] was 0.031 µM.
